Data as given in PubChem BioAssay (NCI).
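How tested: cells in 96-well plates exposed to compound for 48 hours at five concentrations. At the TGI there is no net growth.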

Experiments:
Assay in all cases: NCI anticancer screen, dose series, 48 h
SN12C renal = system: SN12C renal
CCRF-CEM leukemia = system: CCRF-CEM leukemia
T-47D breast = system: T-47D breast
SR leukemia = system: SR leukemia
SF-268 CNS = system: SF-268 CNS
KM12 colon = system: KM12 colon
HCT-15 colon = system: HCT-15 colon
OVCAR-5 ovarian = system: OVCAR-5 ovarian
RXF 393 renal = system: RXF 393 renal
SK-MEL-2 melanoma = system: SK-MEL-2 melanoma
OVCAR-8 ovarian = system: OVCAR-8 ovarian
A549 NSCLC = system: A549 NSCLC
NCI/ADR-RES ovarian = system: NCI/ADR-RES ovarian
EKVX NSCLC = system: EKVX NSCLC
HCC-2998 colon = system: HCC-2998 colon
UACC-62 melanoma = system: UACC-62 melanoma
OVCAR-3 ovarian = system: OVCAR-3 ovarian
CAKI-1 renal = system: CAKI-1 renal
MDA-N = system: MDA-N
COLO 205 colon = system: COLO 205 colon

Compound | TGI (SN12C renal) [µM] | TGI (CCRF-CEM leukemia) [µM] | TGI (T-47D breast) [µM] | TGI (SR leukemia) [µM] | TGI (SF-268 CNS) [µM] | TGI (KM12 colon) [µM] | TGI (HCT-15 colon) [µM] | TGI (OVCAR-5 ovarian) [µM] | TGI (RXF 393 renal) [µM] | TGI (SK-MEL-2 melanoma) [µM] | TGI (OVCAR-8 ovarian) [µM] | TGI (A549 NSCLC) [µM] | TGI (NCI/ADR-RES ovarian) [µM] | TGI (EKVX NSCLC) [µM] | TGI (HCC-2998 colon) [µM] | TGI (UACC-62 melanoma) [µM] | TGI (OVCAR-3 ovarian) [µM] | TGI (CAKI-1 renal) [µM] | TGI (MDA-N) [µM] | TGI (COLO 205 colon) [µM]
O=C1NC(N2CCCC(CO)C2)=N/C1=C\c1ccc(O)cc1 (stereo not given) | > 100 | > 100 | > 100 | > 100 | > 100 | > 100 | > 100 | > 100 | > 100 | > 100 | > 100 | > 100 | > 100 | > 100 | > 100 | > 100 | > 100 | > 100 | > 100 | > 100
C[N+]12C=CC=C1C(N1CCCC1)c1sc(-c3ccc(Cl)cc3)cc12 (stereo not given) | 27.9 | 62.8 | 35.4 | 50.1 | 34.3 | 33.4 | 90.5 | 35.8 | 31.9 | 21.1 | 33.5 | 87.6 | > 100 | 79 | 29.2 | 28.4 | 26.5 | > 100 | 30.4 | 31.6
O=C(O)CCCCCNC(=O)CCC(CN(CC(=O)OCc1ccccc1)CC(=O)OCc1ccccc1)N(CC(=O)OCc1ccccc1)CC(=O)OCc1ccccc1 (stereo not given) | 36.2 | 39.7 | 36.9 | 42 | 43.3 | 36.9 | 34.6 | 32.6 | 28.9 | 32 | 30.1 | 33.2 | 43.1 | 49 | 30.5 | 30.4 | 33.9 | 33.3 | 34.8 | 33.7
COC(=O)C(I(OS(=O)(=O)c1ccc(C)cc1)c1ccccc1)=P(c1ccccc1)(c1ccccc1)c1ccccc1 | > 100 | > 100 | 48.2 | 49.7 | 33.4 | 34.2 | > 100 | 73.1 | 39.2 | 36.4 | 48.1 | 60.6 | > 100 | 54.5 | 34.8 | 35.1 | 33.4 | > 100 | 31.5 | 13.1
COC(=O)c1cc(CNCCc2c[nH]c3ccccc23)on1 | > 100 | > 100 | > 100 | > 100 | > 100 | > 100 | > 100 | > 100 | > 100 | > 100 | > 100 | > 100 | > 100 | > 100 | > 100 | > 100 | > 100 | > 100 | > 100 | > 100
O=C(C(=O)n1ccc2ccccc21)c1c[nH]c2ccccc12 | > 10 | > 10 | > 10 | > 10 | > 10 | > 10 | > 10 | > 10 | > 10 | > 10 | > 10 | > 10 | > 10 | > 10 | > 10 | > 10 | > 10 | > 10 | > 10 | > 10
Cc1ccc(-c2cn3c(nc4ccccc43)c(C)n2)cc1 | > 100 | > 100 | > 30.1 | > 100 | > 100 | > 100 | > 100 | > 100 | > 64.4 | > 63.8 | > 100 | > 100 | > 100 | > 100 | > 100 | > 81.3 | > 100 | > 100 | > 100 | > 100
COc1cc(OC)cc(N(C)Cc2cnc3nc(N)nc(N)c3c2C)c1 | > 100 | > 100 | > 100 | > 100 | > 100 | > 100 | > 100 | > 100 | > 100 | > 100 | > 100 | > 100 | > 100 | > 100 | > 100 | > 100 | > 31.6 | > 100 | > 100 | > 100
CN(C)CCCNc1ccc2nnn3c4ccc([N+](=O)[O-])cc4c(=O)c1c23 | 9.5 | 12.1 | 27.9 | 6.03 | 12 | 4.53 | 7.77 | 9.59 | 4.25 | 15 | 5.38 | 3.06 | 3.09 | 12.9 | 10.4 | 14.4 | 11 | 12.9 | 15.9 | 5.35
CC(=O)CC(=O)Nn1c(-c2cccs2)nc2ccc(I)cc2c1=O | > 100 | > 100 | > 100 | > 100 | > 100 | > 100 | > 100 | > 100 | > 100 | > 100 | > 100 | > 100 | > 94.4 | > 66.1 | > 67.4 | > 85 | > 78.5 | > 74 | > 100 | > 100
O=C1N[C@@H](c2c[nH]c3ccc(Br)cc23)C(=O)N[C@H]1c1c[nH]c2ccc(Br)cc12 | 27.4 | 24 | 36.4 | 19.3 | 26.3 | 18.6 | 37 | 28.8 | 43.4 | 29.4 | 26 | 33.8 | > 100 | 29.7 | 11.8 | 23.2 | 28.4 | 30.4 | 20.7 | 20
COc1ccc(/C=N/NC(=O)c2ccccc2Nc2ccccc2C(=O)N/N=C/c2ccc(OC)c(OC)c2)cc1OC | > 100 | > 100 | > 100 | > 100 | > 100 | > 100 | > 100 | > 100 | > 100 | > 100 | > 100 | > 100 | > 100 | > 100 | > 100 | > 100 | > 100 | > 100 | > 100 | > 100
CN1CCN(c2nc3c(c(=O)n(C)c(=O)n3C)n2C)CC1 | > 100 | > 100 | > 100 | > 100 | > 100 | > 100 | > 100 | > 100 | > 100 | > 100 | > 100 | > 100 | > 100 | > 100 | > 100 | > 100 | > 100 | > 100 | > 100 | > 100
